Experimental findings from US20140289906A1, “Compositions Having Dicamba Decarboxylase Activity and Methods of Use” (priority 2013, published 2014) are described below.

Structures are written as SMILES.

This series has as its system Arabidopsis ecotype Columbia (Col-0). The series is described as follows: Arabidopsis root growth inhibition assay. Particulars: 6 days. Here is the method:
Phytotoxicity of other major dicamba decarboxylaed products was evaluated using Arabidopsis root growth inhibition assay. 4-chloro-3-methoxy phenol was purchased from Biogene Organics, Inc. (catalog number U06-642-79). 2,5-dichloro phenol was purchased from Sigma-Aldrich (catalog number D70007). Briefly, seeds of Arabidopsis ecotype Columbia (Col-0) were surface sterilized with 70% (v/v) ethanol for 5 minutes and 10% (v/v) bleach for 15 minutes. After being washed three times with distilled water, the seeds were germinated on 1× Murashige and Skoog (MS) medium with a pH of 5.7, 3% (w/v) sucrose, and 0.8% (w/v) agar. After incubation for 3.5 days, the seedlings were transferred to 1×MS medium containing B5 vitamin, 3% (w/v) sucrose, 1.2% (w/v) agar, and filter sterilized compounds was added to the media at 60° C. The concentrations of compounds including dicamba were 0 μM, 1.0 μM, and 10 μM. The seedlings were placed vertically, and the temperature maintained at 23° C. to allow root growth along the surface of the agar, with a photoperiod of 16 h of light and 8 h of dark.

Regarding `Oc1cc(Cl)ccc1Cl` [2,5-dichloro phenol], the Arabidopsis root growth result by setting is: (1.0 uM in MS medium) “did not have any effect”; (10 uM in MS medium) “did not have any effect”.
